Test results: patent US20020137731A1, “Combination of radiation and vitamin D3 analogs for the treatment of cancer” (priority 2000, published 2002)
Where “and” joins values, the source holds several entries; their conditions need not be identical. Equal values may be shown once. Read-outs that look alike come from different tables or passages of the source.

What was measured:
MCF-7 cells [1] = experiment: Viable cell number by trypan blue exclusion; assay type: cell-based, human
Method: (§1) All cell lines were grown from frozen stocks in basal RPMI 1640 medium supplemented with 10% fetal calf serum, 2 mM L-glutamine, penicillin/streptomycin at 37° C. under a humidified, 5% CO2 atmosphere. All studies were conducted using approximately 10^4 cells/cm^2 at day 0 with the use of time-equivalent and concentration-equivalent controls. The results shown are averages of two to three studies.
The response of cells treated with adriamycin (1 μM) for 2 hr and irradiation (10 Gy) was assessed 72 hr after treatment by trypan blue exclusion. The response of cells treated with ILX 23-7553 (200 nM) for 72 hr was evaluated 72 hr after removal of ILX 23-7553. To evaluate the combined effects of adriamycin or irradiation with ILX 23-7553 (200 nM), cells were treated with ILX 23-7553 for 72 hr prior to adriamycin (1 μM) or irradiation (10 Gy) and allowed to grow for an additional 72 hr. Cells were harvested using trypsin, stained with 0.4% trypan blue and trypan blue negative cells were counted under phase contrast microscopy.

MCF-7 cells [2] = experiment: Clonogenic analysis (colony forming assay) with statistical model of additivity; assay type: cell-based, human; conditions: for Predicted Response Under Additivity (Surviving Fraction): statistical model of additivity
Method: as §1
MCF-7 cells were treated with ILX 23-7553 (200 nM), adriamycin or radiation alone and with ILX 23-7553 preceding various doses of adriamycin or radiation. For analysis of additivity, MCF-7 cells were treated with various doses of ILX 23-7553 (0-200 nM) in combination with a single dose of either adriamycin (20 nM) or irradiation (2.5 Gy). Cells were trypsinized immediately following adriamycin or radiation under sterile conditions and plated in triplicate in 6 well cell culture plates at approximately 1000 cells for each condition. After 7-10 days, the cells were fixed with 100% methanol, air-dried for 1-2 hr and stained with […] crystal violet. Groups of 50 or more cells were counted as colonies.
The predicted responses for the colony forming assay were determined using the following model: y=exp(B0+B1x1+B2x2) where y is the predicted response, x1 is either dose of irradiation ([…]) or adriarnycin (nM), x2 is the dose of ILX 23-7553 (nM), B0 is an unknown parameter associated with the intercept, B1 is an unknown parameter associated with the slope of x1 and B2 is an unknown parameter associated with the slope of x2. Parameter estimates were found using a generalized least squares criterion for nonlinear models. A constant variance was assumed across the dose range of all four compounds. The Gauss-Newton iterative algorithm was used in PROC NLIN in SAS (version 6.12) to find parameter estimates. The compare the observed response at each combination point to that predicted under the hypotheses of additivity, a prediction interval was used following Gennings et al. (1997). An overall test for additivity (Radford et al., 1994) was based on testing they hypothesis that the mean response under the hypothesis of additivity is the true mean response. The estimated responses under the hypothesis of additivity were provided by the additivity model. The estimated responses for the true means were provided by the sample means at each mixture group.

MCF-7 cells [3] = experiment: TUNEL assay of DNA fragmentation (apoptotic cell death); assay type: cell-based, human; conditions: for DNA fragmentation indicative of apoptotic cell death: agent alone
Description: The method of Gavrielli et al. (1992) was utilized as an independent assessment of apoptotic cell death in combined cytospins containing both adherent and non-adherent cells. The cells were fixed and the fragmented DNA in cells undergoing apoptosis was detected using the In Situ Cell Death detection Kit (Boehringer-Manheim). In this assay, the fragmented DNA in individual cells was end labeled using fluorescein-dUTP at strand breaks by the enzyme terminal transferase. The slides were then washed, mounted in Vectashield and photographed using a Nikon fluorescent microscope. For quantitation, fluorescent cells were scored positive for DNA fragmentation.

MCF-7 cells [4] = experiment: Cell morphology (Wright-Giemsa stain, light microscopy); assay type: cell-based, human; conditions: for apoptotic cell morphology (dark and shrunken cells): 72 h after exposure; for apoptotic cell morphology: agent alone
Description: Seventy-two hours after adriamycin or irradiation exposure, cells were washed and cytocentrifuged onto microscopic slides. The cells were stained Wright-Giesma stain and photographed under a Nikon light microscope.

MCF-7 cells [5] = conditions: previous work, literature; cited from earlier work
MCF-7 breast tumor cells = conditions: Sundaram and Gewirtz, 1999; Sundaram et al., 2000; cited from earlier work
[6] = ILX 23-7553 pretreatment followed by radiation

C=C1/C(=C\C=C2/CCC[C@]3(C)C([C@H](C)CC#CC(C)(C)O)=CC[C@@H]23)C[C@@H](O)C[C@@H]1O [ILX 23-7553]
cytotoxicity at 0.2 µM (MCF-7 cells [1]; Homo sapiens, MCF7, 72 h, ILX 23-7553 200 nM for 72 h alone, counted 72 h after removal, vs untreated controls, read-out: decrease in viable cell number): 60% | cytotoxicity at 0.2 µM (MCF-7 cells [1]; Homo sapiens, MCF7, ILX 23-7553 200 nM 72 h pretreatment followed by 10 Gy ionizing radiation, counted 72 h after, read-out: decrease in viable cell number): 93% | cytotoxicity at 0.2 µM (MCF-7 cells [1]; Homo sapiens, MCF7, ILX 23-7553 200 nM 72 h pretreatment followed by adriamycin 1 μM, counted 72 h after, read-out: decrease in viable cell number): 97% | decrease in viable cell numbers as compared to ILX 23-7553 alone (MCF-7 cells [1]; [6]): 66% | decrease in viable cell numbers as compared to radiation alone (MCF-7 cells [1]; [6]): 24% | fold decrease in adriamycin dose required to reduce clonogenic survival by 50% (MCF-7 cells [2]; 200 nM ILX 23-7553 pretreatment for 72 h vs adriamycin alone): ~2.5 fold and 2 fold | fold reduction in irradiation dose required to reduce clonogenic survival by 50% (MCF-7 cells [2]; 200 nM ILX 23-7553 pretreatment for 72 h vs irradiation alone): 4 fold | Observed Mean Response (Surviving Fraction) (MCF-7 cells [2]; Adr 1 nM, ILX 200 nM): 0.67 | Predicted Response Under Additivity (Surviving Fraction) (MCF-7 cells [2]; Adr 1 nM, ILX 200 nM): 0.53 | Observed Mean Response (Surviving Fraction) (MCF-7 cells [2]; Adr 5 nM, ILX 200 nM): 0.58 | Predicted Response Under Additivity (Surviving Fraction) (MCF-7 cells [2]; Adr 5 nM, ILX 200 nM): 0.51 | Observed Mean Response (Surviving Fraction) (MCF-7 cells [2]; Adr 10 nM, ILX 200 nM): 0.52 | Predicted Response Under Additivity (Surviving Fraction) (MCF-7 cells [2]; Adr 10 nM, ILX 200 nM): 0.49 | Observed Mean Response (Surviving Fraction) (MCF-7 cells [2]; Adr 20 nM, ILX 50 nM): 0.58 | Predicted Response Under Additivity (Surviving Fraction) (MCF-7 cells [2]; Adr 20 nM, ILX 50 nM): 0.63 | Observed Mean Response (Surviving Fraction) (MCF-7 cells [2]; Adr 20 nM, ILX 100 nM): 0.50 | Predicted Response Under Additivity (Surviving Fraction) (MCF-7 cells [2]; Adr 20 nM, ILX 100 nM): 0.56 | Observed Mean Response (Surviving Fraction) (MCF-7 cells [2]; Adr 20 nM, ILX 200 nM): 0.46 | Predicted Response Under Additivity (Surviving Fraction) (MCF-7 cells [2]; Adr 20 nM, ILX 200 nM): 0.44 | Observed Mean Response (Surviving Fraction) (MCF-7 cells [2]; Adr 100 nM, ILX 200 nM): 0.24 | Predicted Response Under Additivity (Surviving Fraction) (MCF-7 cells [2]; Adr 100 nM, ILX 200 nM): 0.20 | Observed Mean Response (Surviving Fraction) (MCF-7 cells [2]; IR 0.5 Gy, ILX 200 nM): 0.34 | Predicted Response Under Additivity (Surviving Fraction) (MCF-7 cells [2]; IR 0.5 Gy, ILX 200 nM): 0.51 | Observed Mean Response (Surviving Fraction) (MCF-7 cells [2]; IR 1.0 Gy, ILX 200 nM): 0.27 | Predicted Response Under Additivity (Surviving Fraction) (MCF-7 cells [2]; IR 1.0 Gy, ILX 200 nM): 0.41 | Observed Mean Response (Surviving Fraction) (MCF-7 cells [2]; IR 2.5 Gy, ILX 50 nM): 0.23 | Predicted Response Under Additivity (Surviving Fraction) (MCF-7 cells [2]; IR 2.5 Gy, ILX 50 nM): 0.29 | Observed Mean Response (Surviving Fraction) (MCF-7 cells [2]; IR 2.5 Gy, ILX 200 nM): 0.20 | Predicted Response Under Additivity (Surviving Fraction) (MCF-7 cells [2]; IR 2.5 Gy, ILX 200 nM): 0.22 | Observed Mean Response (Surviving Fraction) (MCF-7 cells [2]; IR 5.0 Gy, ILX 200 nM): 0.13 | Predicted Response Under Additivity (Surviving Fraction) (MCF-7 cells [2]; IR 5.0 Gy, ILX 200 nM): 0.08 | dose of irradiation required to produce a 50% decrease in clonogenic survival (MCF-7 cells [2]; after 200 nM ILX 23-7553 pretreatment (irradiation alone: 1 Gy)): 0.25 Gy | type of interaction between ILX 23-7553 and irradiation (additive vs synergistic) (MCF-7 cells [2]; colony forming assays, observed vs predicted surviving fractions, p=0.196): additively | type of interaction between ILX 23-7553 and adriamycin (additive vs synergistic) (MCF-7 cells [2]; colony forming assays, observed vs predicted surviving fractions, p=0.461): additively | percent TUNEL-positive cells (cells with DNA fragmentation) (MCF-7 cells [3]; ILX 23-7553 pretreatment followed by adriamycin): 15% and 14% | percent TUNEL-positive cells (cells with DNA fragmentation) (MCF-7 cells [3]; ILX 23-7553 pretreatment followed by irradiation): 7% | DNA fragmentation indicative of apoptotic cell death (MCF-7 cells [3]): not induced | apoptotic cell morphology (dark and shrunken cells) (MCF-7 cells [4]; ILX 23-7553 in combination with adriamycin): observed | apoptotic cell morphology (dark and shrunken cells) (MCF-7 cells [4]; ILX 23-7553 in combination with irradiation): observed | apoptotic cell morphology (MCF-7 cells [4]): did not produce cells with this apoptotic morphology

COc1cccc2c1C(=O)c1c(O)c3c(c(O)c1C2=O)C[C@@](O)(C(=O)CO)C[C@@H]3O[C@H]1C[C@H](N)[C@H](O)[C@H](C)O1 [adriamycin, reference compound]
cytotoxicity at 1 µM (MCF-7 cells [1]; Homo sapiens, MCF7, adriamycin 1 μM (2 hr acute exposure) alone, counted 72 h after, vs untreated controls, read-out: decrease in viable cell number): 74% | DNA fragmentation indicative of apoptotic cell death (MCF-7 cells [3]): not induced | apoptotic cell morphology (MCF-7 cells [4]): did not produce cells with this apoptotic morphology | induction of apoptotic cell death (MCF-7 cells [5]): neither adriamycin nor irradiation induces apoptotic cell death

C=C1/C(=C\C=C2/CCC[C@]3(C)[C@@H]([C@H](C)/C=C/C=C/C(O)(CC)CC)CC[C@@H]23)C[C@@H](O)C[C@@H]1O [EB 1089]
effect on the response of MCF-7 breast tumor cells to adriamycin and irradiation (MCF-7 breast tumor cells): enhances
